Reference: patent US7632861B2, “Substituted heterocyclic ethers and their use in CNS disorders” (Bristol-Myers Squibb Company, priority 2007, dated 2009)

Assays:
NK-1 = molecular target: T1, NK-1 (Homo sapiens, UniProt P25103); assay: NK1 radioligand binding assay ([125I]Substance P, U373 cell membranes); conditions: 1 hour at room temperature
T1 construct: endogenous in cells; host or cells: U373 cells (crude membranes)
Experimental: (§1) NK-1 Binding assay. Crude membrane suspensions were prepared for the NK1 and SERT radioligand binding assays from U373 cells or recombinant HEK-293 cells expressing hSERT, respectively. Cells were harvested from T-175 flasks as follows. The medium is removed from the flasks and the cells rinsed with HBSS without Ca and without Mg. The cells are then incubated for 5-10 minutes in 10 mM Tris-Cl, pH 7.5, 5 mM EDTA before the cells are lifted with a combination of pipetting and scraping, as needed. To prepare membranes, the cell suspension is collected into centrifuge bottles and homogenized for 30 seconds with a Polytron homogenizer. The suspension is centrifuged for 30 min @ 32,000×g, 4° C., then the supernatant is decanted and the pellet resuspended and homogenized in 50 mM Tris-Cl, pH 7.5, 1 mM EDTA for 10 seconds. The suspension is then centrifuged again for 30 min @ 32,000×g, 4° C. The supernatant is decanted and the pellet resuspended in 50 mM Tris-Cl, pH 7.5, 1 mM EDTA and briefly homogenized. A Bradford assay (Bio-rad) is performed and the membrane preparation diluted to 2 mg/ml with 50 mM Tris-Cl, pH 7.5, 1 mM EDTA. Aliquots are prepared, and then frozen and stored at −80° C.
NK1 radioligand binding assay. Compounds are dissolved in 100% DMSO at a concentration 100× the desired highest assay concentration, serially diluted 1:3 in 100% DMSO, and 0.6 ul/well of each solution is dispensed to a Nunc polypropylene, round bottom, 384 well plate. 100% inhibition is defined with 0.6 ul/well of 1 mM L-733,060 (Sigma L-137) dissolved in DMSO. 30 ul/well of a 2×U373 membrane preparation (267 ug/ml in 100 mM Tris-Cl, pH 7.5, 6 mM MgCl2, 0.2% (v/v) Sigma mammalian protease inhibitor cocktail (Sigma P-8340), and 4 ug/ml chymostatin, Sigma C-7268) and 30 ul/well of a 2×radioligand solution (400 pM [^125I]Substance P (Perkin Elmer NEX-190) in 1% (w/v) BSA (Sigma A-2153), 0.1 mg/ml bacitracin, Sigma B-0125) are added to the well and the reaction incubated for 1 hour at room temperature. The contents of the assay plate are then transferred to a Millipore MultiscreenHTS GF/B filter plate which has been pretreated with 0.5% PEI for at least one hour. The plate is vacuum filtered and washed with 7 washes of 100 ul/well of 20 mM Tris-Cl, pH 7.5, 0.5% (w/v) BSA chilled to 4° C. The filtration and washing is completed in less than 90 s. The plates are air-dried overnight, 12 ul/well of MicroScint scintillation fluid added, and the plates counted in a Trilux.
(§2) Data analysis. The raw data are normalized to percent inhibition using control wells defining 0% (DMSO only) and 100% (selective inhibitor) inhibition which are run on each plate. Each plate is run in triplicate, and the concentration response curve thus generated is fit using the four-parameter dose response equation, Y=Bottom+(Top-Bottom)/(1+10^((LogIC50-X)*HillSlope)) in order to determine the IC50 value for each compound. The radioligand concentration chosen for each assay corresponds to the Kd concentration determined through saturation binding analysis for each assay.

hSERT = molecular target: T2, hSERT (Homo sapiens, UniProt P31645); assay: SERT radioligand binding assay ([125I]RTI-55, HEK-hSERT membranes); conditions: [125I]RTI-55, 1 hour at room temperature
T2 construct: expressed in transfected cells; host or cells: HEK-293 cells (crude membranes)
Experimental: as §1
SERT radioligand binding assay. Compounds are dissolved in 100% DMSO at a concentration 100× the desired highest assay concentration, serially diluted 1:3 in 100% DMSO, and 0.4 ul/well of each solution is dispensed to a Nunc polypropylene, round bottom, 384 well plate. 100% inhibition is defined with 0.4 ul/well of 1 mM fluoxetine (Sigma F-132) dissolved in DMSO. 20 ul/well of a 2×HEK-hSERT membrane preparation (15 ug/ml in 50 mM Tris-Cl, pH 7.5, 120 mM NaCl, 5 mM KCl) and 20 ul/well of a 2×radioligand solution (520 pM [^125I]RTI-55 (Perkin-Elmer NEX-272) in 50 mM Tris-Cl, pH 7.5, 120 mM NaCl, 5 mM KCl) are added to each well and the reaction incubated for 1 hour at room temperature. The contents of the assay plate are then transferred to a Millipore MultiscreenHTS GF/B filter plate which has been pretreated with 0.5% PEI for at least one hour. The plate is vacuum filtered and washed with 7 washes of 100 ul/well of 50 mM Tris-Cl, pH 7.5, 120 mM NaCl, 5 mM KCl chilled to 4° C. The filtration and washing is completed in less than 90 s. The plates are air-dried overnight, 12 ul/well of MicroScint scintillation fluid added, and the plates counted in a Trilux.
as §2

T1 sequence (P25103 whole entry): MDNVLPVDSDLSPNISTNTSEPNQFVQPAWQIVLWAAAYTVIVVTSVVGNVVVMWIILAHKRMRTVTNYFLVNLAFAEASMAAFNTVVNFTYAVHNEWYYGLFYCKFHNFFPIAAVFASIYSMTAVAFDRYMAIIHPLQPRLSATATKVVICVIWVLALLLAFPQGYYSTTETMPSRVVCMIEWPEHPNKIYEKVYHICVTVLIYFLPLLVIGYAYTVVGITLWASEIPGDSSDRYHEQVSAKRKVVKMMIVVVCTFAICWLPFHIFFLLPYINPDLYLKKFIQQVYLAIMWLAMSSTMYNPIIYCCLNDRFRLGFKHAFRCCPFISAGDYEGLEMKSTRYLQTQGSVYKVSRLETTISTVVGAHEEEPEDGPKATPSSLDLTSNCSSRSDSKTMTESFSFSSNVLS
T2 sequence (P31645 whole entry): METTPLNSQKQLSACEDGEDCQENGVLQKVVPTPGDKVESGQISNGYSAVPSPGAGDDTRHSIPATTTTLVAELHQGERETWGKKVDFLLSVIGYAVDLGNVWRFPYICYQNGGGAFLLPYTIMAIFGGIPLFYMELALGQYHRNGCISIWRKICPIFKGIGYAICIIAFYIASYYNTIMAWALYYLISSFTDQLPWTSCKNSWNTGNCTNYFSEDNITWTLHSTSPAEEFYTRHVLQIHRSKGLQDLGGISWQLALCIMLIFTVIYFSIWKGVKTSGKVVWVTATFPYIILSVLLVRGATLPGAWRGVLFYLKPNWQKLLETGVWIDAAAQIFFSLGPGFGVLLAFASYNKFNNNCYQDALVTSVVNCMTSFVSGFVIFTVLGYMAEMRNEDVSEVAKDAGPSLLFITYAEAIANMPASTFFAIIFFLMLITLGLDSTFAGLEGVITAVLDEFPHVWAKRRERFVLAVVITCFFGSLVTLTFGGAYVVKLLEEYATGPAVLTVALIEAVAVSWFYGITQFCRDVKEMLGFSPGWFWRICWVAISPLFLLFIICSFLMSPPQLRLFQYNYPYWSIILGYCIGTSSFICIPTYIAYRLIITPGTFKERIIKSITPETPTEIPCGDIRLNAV

| IC50 (NK-1) | IC50 (hSERT) | Structure (SMILES) |
| --- | --- | --- |
| 0.01 to 100 nM | > 300 nM | CN(C)CCCC1(COCc2cc(C(F)(F)F)cc(C(F)(F)F)c2)OCc2ccccc21 (stereo not drawn) [Example 38, 3-(1-((3,5-is(trifluoromethyl)benzyloxy)methyl)-1,3-dihydroisobenzofuran-1-yl)-N,N-dimethylpropan-1-amine] |
| 0.01 to 100 nM | 0.01 to 100 nM | NCCC1(COCc2cc(C(F)(F)F)cc(C(F)(F)F)c2)OCCc2ccccc21 (stereo not drawn) [Example 39, 2-(1-((3,5-Bis(trifluoromethyl)benzyloxy)methyl)isochroman-1-yl)ethanamine] |
| 0.01 to 100 nM | 0.01 to 100 nM | CN(C)CCC1(COCc2cc(C(F)(F)F)cc(C(F)(F)F)c2)OCCc2ccccc21 (stereo not drawn) [Example 40, 2-(1-((3,5-Bis(trifluoromethyl)benzyloxy)methyl)isochroman-1-yl)-N,N-dimethylethanamine] |
